Data from patent publication US20230365546A1, “5-SUBSTITUTED INDOLE 3-AMIDE DERIVATIVES, PREPARATION METHOD AND USE THEREOF” (ORIGIANT PHARMACEUTICAL CO., LTD, priority 2020, published 2023).

Columns and labels:
Assay in all cases: Kinase Profiler 10 μM panel
CaMKK2(h) = CaMKK2(h) (Homo sapiens (Human), UniProt Q96RR4)
Experimental: (§1) In vitro kinase assays were conducted using Kinase Profiler services provided by Eurofins. The experimental method was as follows: the small molecule compound to be tested (0.001-10 μM), the protein kinase to be tested were incubated with a buffer containing substrate, 10 mM magnesium acetate, and [γ-^33P-ATP], the reaction was started by adding Mg\TPmix, after incubation for a period of time at room temperature, a 3% phosphate solution was added to the buffer to stop the reaction. Subsequently, 10 μL of the reaction mixture was quantitatively pipetted onto P30 filter paper, which was washed three times with 75 mM phosphate solution and then once with methanol. The P30 filter paper was air-dried and scintillation fluid was added for scintillation counting.

Axl(h) = Axl(h) (Homo sapiens (Human), UniProt P30530)
Experimental: as §1

SGK3(h) = SGK3(h) (Homo sapiens (Human), UniProt Q96BR1)
Experimental: as §1

CDK1/cyclinB(h) = CDK1/cyclinB(h) (Homo sapiens (Human), UniProt P06493)
Chain of CDK1/cyclinB(h) (P06493 whole entry): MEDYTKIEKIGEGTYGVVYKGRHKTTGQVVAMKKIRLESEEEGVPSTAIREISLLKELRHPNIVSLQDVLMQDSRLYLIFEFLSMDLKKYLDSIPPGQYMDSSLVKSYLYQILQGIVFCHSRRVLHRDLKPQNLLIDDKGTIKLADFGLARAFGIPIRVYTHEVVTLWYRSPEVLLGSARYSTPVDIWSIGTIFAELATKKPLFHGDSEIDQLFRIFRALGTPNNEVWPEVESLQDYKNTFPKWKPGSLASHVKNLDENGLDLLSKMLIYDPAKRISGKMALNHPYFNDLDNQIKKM
Chain of CDK1/cyclinB(h) (P14635 whole entry partner): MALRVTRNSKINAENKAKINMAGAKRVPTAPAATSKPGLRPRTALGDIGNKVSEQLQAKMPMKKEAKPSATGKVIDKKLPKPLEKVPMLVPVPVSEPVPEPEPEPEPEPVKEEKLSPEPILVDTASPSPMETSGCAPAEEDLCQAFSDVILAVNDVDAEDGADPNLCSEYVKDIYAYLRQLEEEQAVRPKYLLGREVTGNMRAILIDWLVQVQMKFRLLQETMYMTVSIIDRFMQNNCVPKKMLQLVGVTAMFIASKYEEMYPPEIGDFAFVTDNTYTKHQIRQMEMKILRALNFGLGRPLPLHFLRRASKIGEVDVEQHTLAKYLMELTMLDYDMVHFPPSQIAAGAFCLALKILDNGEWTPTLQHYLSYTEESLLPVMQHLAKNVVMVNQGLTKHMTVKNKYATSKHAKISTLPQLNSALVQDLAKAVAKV
Experimental: as §1

Met(Y1248H)(h) = Met(Y1248H)(h) (Homo sapiens (Human), UniProt P08581, Y1230H)
Experimental: as §1

PKCμ(h) = PKCμ(h) (Homo sapiens (Human), UniProt Q15139)
Experimental: as §1

DDR2(h) = DDR2(h) (Homo sapiens (Human), UniProt Q16832)
Experimental: as §1

MRCKα(h) = MRCKα(h) (Homo sapiens (Human), UniProt Q5VT25)
Experimental: as §1

Abl (H396P)(h) = Abl (H396P)(h) (Homo sapiens (Human), UniProt P00519, H396P)
Experimental: as §1

ALK1(h) = ALK1(h) (Homo sapiens (Human), UniProt P37023)
Experimental: as §1

SIK3(h) = SIK3(h) (Homo sapiens (Human), UniProt Q9Y2K2)
Experimental: as §1

ZIPK(h) = ZIPK(h) (Homo sapiens (Human), UniProt O43293)
Experimental: as §1

NLK(h) = NLK(h) (Homo sapiens (Human), UniProt Q9UBE8)
Experimental: as §1

JNK1α1(h) = JNK1α1(h) (Homo sapiens (Human), UniProt P45983)
Experimental: as §1

[1] = biological target: PI3 Kinase (p110b/p85a)(h) (Homo sapiens (Human), UniProt P42338)
Chain of PI3 Kinase (p110b/p85a)(h) (P42338 whole entry): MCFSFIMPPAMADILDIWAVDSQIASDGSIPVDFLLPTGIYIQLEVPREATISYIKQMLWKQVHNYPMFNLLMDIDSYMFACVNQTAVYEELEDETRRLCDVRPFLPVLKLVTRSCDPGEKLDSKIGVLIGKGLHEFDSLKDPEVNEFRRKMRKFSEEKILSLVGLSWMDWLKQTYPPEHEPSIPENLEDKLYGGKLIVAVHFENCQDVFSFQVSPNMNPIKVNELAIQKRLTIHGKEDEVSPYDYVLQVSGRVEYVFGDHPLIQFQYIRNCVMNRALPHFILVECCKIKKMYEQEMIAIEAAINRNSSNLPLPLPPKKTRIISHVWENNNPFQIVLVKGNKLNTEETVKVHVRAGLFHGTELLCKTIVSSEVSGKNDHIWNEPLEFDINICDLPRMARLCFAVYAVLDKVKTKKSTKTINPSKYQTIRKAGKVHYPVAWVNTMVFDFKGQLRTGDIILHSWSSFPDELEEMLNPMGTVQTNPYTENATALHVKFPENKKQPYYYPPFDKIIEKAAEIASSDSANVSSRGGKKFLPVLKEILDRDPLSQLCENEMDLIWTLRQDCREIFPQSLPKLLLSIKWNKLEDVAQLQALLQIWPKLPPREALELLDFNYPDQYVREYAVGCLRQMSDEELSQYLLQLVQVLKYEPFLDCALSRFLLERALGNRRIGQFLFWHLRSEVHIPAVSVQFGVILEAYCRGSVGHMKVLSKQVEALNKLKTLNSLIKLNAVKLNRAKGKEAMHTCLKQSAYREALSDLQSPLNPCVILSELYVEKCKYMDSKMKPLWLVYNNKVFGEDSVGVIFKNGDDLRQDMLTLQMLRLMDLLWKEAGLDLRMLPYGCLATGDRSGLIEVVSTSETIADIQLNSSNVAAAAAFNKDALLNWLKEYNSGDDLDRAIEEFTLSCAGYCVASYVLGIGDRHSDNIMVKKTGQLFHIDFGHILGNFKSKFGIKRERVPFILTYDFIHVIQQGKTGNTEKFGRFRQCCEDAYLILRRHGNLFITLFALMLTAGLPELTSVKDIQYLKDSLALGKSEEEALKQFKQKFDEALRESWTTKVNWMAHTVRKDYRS
Chain of PI3 Kinase (p110b/p85a)(h) (P27986 whole entry partner): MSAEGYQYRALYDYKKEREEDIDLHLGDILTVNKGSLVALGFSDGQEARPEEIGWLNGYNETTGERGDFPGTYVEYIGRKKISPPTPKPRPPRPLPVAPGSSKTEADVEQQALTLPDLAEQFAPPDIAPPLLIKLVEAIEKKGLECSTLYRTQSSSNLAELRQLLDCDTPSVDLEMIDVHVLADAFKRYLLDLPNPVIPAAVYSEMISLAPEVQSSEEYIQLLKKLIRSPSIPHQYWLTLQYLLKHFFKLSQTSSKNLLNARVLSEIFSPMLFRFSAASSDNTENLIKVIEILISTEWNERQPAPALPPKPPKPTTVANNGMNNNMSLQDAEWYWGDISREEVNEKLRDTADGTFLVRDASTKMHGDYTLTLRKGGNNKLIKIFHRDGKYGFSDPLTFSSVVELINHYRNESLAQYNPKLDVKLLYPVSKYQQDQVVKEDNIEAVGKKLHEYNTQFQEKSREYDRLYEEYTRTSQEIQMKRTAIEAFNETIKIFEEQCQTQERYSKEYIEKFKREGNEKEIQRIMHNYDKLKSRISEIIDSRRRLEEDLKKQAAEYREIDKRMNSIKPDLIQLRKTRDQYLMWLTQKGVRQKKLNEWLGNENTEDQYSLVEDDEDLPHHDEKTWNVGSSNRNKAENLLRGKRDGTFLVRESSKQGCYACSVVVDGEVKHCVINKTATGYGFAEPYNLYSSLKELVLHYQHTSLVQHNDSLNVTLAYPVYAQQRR
Experimental: as §1

CDKL1(h) = CDKL1(h) (Homo sapiens (Human), UniProt Q00532)
Chain of CDKL1(h) (Q00532 whole entry): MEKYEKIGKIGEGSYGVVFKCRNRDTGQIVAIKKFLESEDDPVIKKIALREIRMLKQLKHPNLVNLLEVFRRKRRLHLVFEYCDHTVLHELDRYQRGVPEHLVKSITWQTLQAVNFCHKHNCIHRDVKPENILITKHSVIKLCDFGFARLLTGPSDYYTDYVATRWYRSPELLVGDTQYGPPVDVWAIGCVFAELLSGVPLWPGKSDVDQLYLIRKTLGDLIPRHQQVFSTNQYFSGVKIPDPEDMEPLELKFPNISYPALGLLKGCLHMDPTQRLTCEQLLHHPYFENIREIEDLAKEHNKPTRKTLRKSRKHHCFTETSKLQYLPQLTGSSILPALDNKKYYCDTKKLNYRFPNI
Experimental: as §1

TrkB(h) = TrkB(h) (Homo sapiens (Human), UniProt Q16620)
Chain of TrkB(h) (Q16620 32-822): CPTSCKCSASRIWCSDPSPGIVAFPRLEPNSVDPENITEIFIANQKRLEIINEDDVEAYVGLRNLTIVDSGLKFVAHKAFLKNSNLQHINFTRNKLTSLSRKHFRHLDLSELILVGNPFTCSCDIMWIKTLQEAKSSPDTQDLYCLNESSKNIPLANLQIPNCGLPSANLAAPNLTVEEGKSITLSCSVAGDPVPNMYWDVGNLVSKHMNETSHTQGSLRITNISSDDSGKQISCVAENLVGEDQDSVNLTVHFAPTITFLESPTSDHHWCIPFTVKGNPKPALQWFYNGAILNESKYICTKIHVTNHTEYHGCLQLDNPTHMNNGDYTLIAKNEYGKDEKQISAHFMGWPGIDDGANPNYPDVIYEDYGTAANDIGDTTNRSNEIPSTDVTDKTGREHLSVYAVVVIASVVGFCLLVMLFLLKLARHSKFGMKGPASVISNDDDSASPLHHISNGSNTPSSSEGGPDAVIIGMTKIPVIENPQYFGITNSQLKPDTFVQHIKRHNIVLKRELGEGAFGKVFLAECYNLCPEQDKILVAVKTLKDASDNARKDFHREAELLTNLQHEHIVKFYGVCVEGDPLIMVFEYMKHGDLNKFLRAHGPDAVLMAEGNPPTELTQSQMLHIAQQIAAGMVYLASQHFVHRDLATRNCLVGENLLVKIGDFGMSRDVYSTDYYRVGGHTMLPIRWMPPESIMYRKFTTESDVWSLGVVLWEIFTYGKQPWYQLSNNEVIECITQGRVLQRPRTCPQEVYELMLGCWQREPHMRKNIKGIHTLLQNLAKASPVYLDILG
Experimental: as §1

TrkA(h) = TrkA(h) (Homo sapiens (Human), UniProt P04629)
Experimental: as §1

EphB1(h) = EphB1(h) (Homo sapiens (Human), UniProt P54762)
Experimental: as §1

SGK(h) = SGK(h) (Homo sapiens (Human), UniProt O00141)
Chain of SGK(h) (O00141 whole entry): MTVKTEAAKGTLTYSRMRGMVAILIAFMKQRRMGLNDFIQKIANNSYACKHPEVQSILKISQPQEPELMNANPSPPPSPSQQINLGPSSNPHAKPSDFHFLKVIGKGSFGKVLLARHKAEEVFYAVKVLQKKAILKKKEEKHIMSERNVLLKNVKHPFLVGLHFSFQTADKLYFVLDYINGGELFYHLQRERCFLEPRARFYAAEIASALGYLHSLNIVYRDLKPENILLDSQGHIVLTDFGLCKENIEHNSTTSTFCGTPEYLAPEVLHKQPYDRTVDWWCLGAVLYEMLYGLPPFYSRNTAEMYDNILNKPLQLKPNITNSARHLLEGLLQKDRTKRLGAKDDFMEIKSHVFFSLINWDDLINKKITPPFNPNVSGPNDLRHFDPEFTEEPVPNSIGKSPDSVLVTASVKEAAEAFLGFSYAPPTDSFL
Experimental: as §1

CHK2(R145W)(h) = CHK2(R145W)(h) (Homo sapiens (Human), UniProt O96017, R145W)
Experimental: as §1

CDK7/cyclinH/MAT1(h) = CDK7/cyclinH/MAT1(h) (Homo sapiens (Human), UniProt P50613)
Experimental: as §1

CK2(h) = CK2(h) (Homo sapiens (Human), UniProt P68400)
Experimental: as §1

Plk4(h) = Plk4(h) (Homo sapiens (Human), UniProt O00444)
Experimental: as §1

TGFBR2(h) = TGFBR2(h) (Homo sapiens (Human), UniProt P37173)
Experimental: as §1

MELK(h) = MELK(h) (Homo sapiens (Human), UniProt Q14680)
Experimental: as §1

NDR2(h) = NDR2(h) (Homo sapiens (Human), UniProt Q9Y2H1)
Experimental: as §1

NEK3(h) = NEK3(h) (Homo sapiens (Human), UniProt P51956)
Experimental: as §1

CaMKIIβ(h) = CaMKIIβ(h) (Homo sapiens (Human), UniProt Q13554)
Experimental: as §1

Pim-3(h) = Pim-3(h) (Homo sapiens (Human), UniProt Q86V86)
Experimental: as §1

EGFR(h) = EGFR(h) (Homo sapiens (Human), UniProt P00533)
Experimental: as §1

ROCK-II(h) = ROCK-II(h) (Homo sapiens (Human), UniProt O75116)
Experimental: as §1

TLK2(h) = TLK2(h) (Homo sapiens (Human), UniProt Q86UE8)
Experimental: as §1

TRB2(h) = TRB2(h) (Homo sapiens (Human), UniProt Q92519)
Experimental: as §1

Chain of SGK3(h) (Q96BR1 whole entry): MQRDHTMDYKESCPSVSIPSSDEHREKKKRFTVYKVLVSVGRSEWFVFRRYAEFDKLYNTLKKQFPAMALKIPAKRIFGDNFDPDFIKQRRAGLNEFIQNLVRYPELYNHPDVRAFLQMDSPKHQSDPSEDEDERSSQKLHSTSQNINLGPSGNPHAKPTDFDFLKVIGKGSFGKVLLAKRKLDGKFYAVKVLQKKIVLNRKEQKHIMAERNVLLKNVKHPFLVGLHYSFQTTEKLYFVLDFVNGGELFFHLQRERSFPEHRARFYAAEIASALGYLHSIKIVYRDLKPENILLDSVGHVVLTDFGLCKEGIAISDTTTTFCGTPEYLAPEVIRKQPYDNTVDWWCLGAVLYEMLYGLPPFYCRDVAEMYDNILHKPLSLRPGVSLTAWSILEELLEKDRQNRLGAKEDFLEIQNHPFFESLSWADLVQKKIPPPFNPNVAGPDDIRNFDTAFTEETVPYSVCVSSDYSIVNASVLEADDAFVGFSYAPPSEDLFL

**Q.** How did the Inhibition ratio/% (CaMKK2(h)) turn out when `C[C@H](NC(=O)c1cn(C)c2ccc(-c3ccn4nc(NC(=O)C5CC5)nc4c3)cc12)c1cccc(F)c1` [Compound 94, (S)-5-(2-(cyclopropanecarboxamido)-[1,2,4]triazolo[1,5-a]pyridin-7-yl)-N-(1-(3-fluorophenyl)ethyl)-1-methyl-1H-indole-3-carboxamide] was run?
**A.** Its Inhibition ratio/% is 63%.

**Q.** And the Inhibition ratio/% (Axl(h))?
**A.** The Inhibition ratio/% was 31%.

**Q.** What about the Inhibition ratio/% (SGK3(h)) of the same molecule?
**A.** Its Inhibition ratio/% is 41%.

**Q.** What about the Inhibition ratio/% (CDK1/cyclinB(h)) of the same molecule?
**A.** The Inhibition ratio/% was 78%.

**Q.** What about the Inhibition ratio/% (Met(Y1248H)(h)) of the same molecule?
**A.** Its Inhibition ratio/% is −11%.

**Q.** What about the Inhibition ratio/% (PKCμ(h)) of the same molecule?
**A.** Its Inhibition ratio/% is 50%.

**Q.** And the Inhibition ratio/% (DDR2(h))?
**A.** The Inhibition ratio/% was 20%.

**Q.** What about the Inhibition ratio/% (MRCKα(h)) of the same molecule?
**A.** The Inhibition ratio/% was −19%.

**Q.** What about the Inhibition ratio/% (Abl (H396P)(h)) of the same molecule?
**A.** The Inhibition ratio/% was 34%.

**Q.** What about the Inhibition ratio/% (ALK1(h)) of the same molecule?
**A.** The Inhibition ratio/% was 0%.

**Q.** What about the Inhibition ratio/% (SIK3(h)) of the same molecule?
**A.** The Inhibition ratio/% was 47%.

**Q.** What about the Inhibition ratio/% (ZIPK(h)) of the same molecule?
**A.** Its Inhibition ratio/% is 6%.

**Q.** What about the Inhibition ratio/% (NLK(h)) of the same molecule?
**A.** The Inhibition ratio/% was 16%.

**Q.** What about the Inhibition ratio/% (JNK1α1(h)) of the same molecule?
**A.** Its Inhibition ratio/% is 53%.

**Q.** And the Inhibition ratio/% [1]?
**A.** The Inhibition ratio/% was −7%.

**Q.** What about the Inhibition ratio/% (CDKL1(h)) of the same molecule?
**A.** Its Inhibition ratio/% is 35%.

**Q.** What about the Inhibition ratio/% (TrkB(h)) of the same molecule?
**A.** The Inhibition ratio/% was 0%.

**Q.** And the Inhibition ratio/% (TrkA(h))?
**A.** The Inhibition ratio/% was −12%.

**Q.** What about the Inhibition ratio/% (EphB1(h)) of the same molecule?
**A.** The Inhibition ratio/% was 1%.

**Q.** And the Inhibition ratio/% (SGK(h))?
**A.** Its Inhibition ratio/% is 51%.

**Q.** And the Inhibition ratio/% (CHK2(R145W)(h))?
**A.** Its Inhibition ratio/% is 69%.

**Q.** What about the Inhibition ratio/% (CDK7/cyclinH/MAT1(h)) of the same molecule?
**A.** Its Inhibition ratio/% is 53%.

**Q.** What about the Inhibition ratio/% (CK2(h)) of the same molecule?
**A.** The Inhibition ratio/% was 44%.

**Q.** And the Inhibition ratio/% (Plk4(h))?
**A.** Its Inhibition ratio/% is 15%.

**Q.** What about the Inhibition ratio/% (TGFBR2(h)) of the same molecule?
**A.** The Inhibition ratio/% was −6%.

**Q.** And the Inhibition ratio/% (MELK(h))?
**A.** The Inhibition ratio/% was 1%.

**Q.** What about the Inhibition ratio/% (NDR2(h)) of the same molecule?
**A.** Its Inhibition ratio/% is 46%.

**Q.** What about the Inhibition ratio/% (NEK3(h)) of the same molecule?
**A.** Its Inhibition ratio/% is 14%.

**Q.** What about the Inhibition ratio/% (CaMKIIβ(h)) of the same molecule?
**A.** The Inhibition ratio/% was 78%.

**Q.** And the Inhibition ratio/% (Pim-3(h))?
**A.** Its Inhibition ratio/% is 32%.

**Q.** And the Inhibition ratio/% (EGFR(h))?
**A.** Its Inhibition ratio/% is 10%.

**Q.** What about the Inhibition ratio/% (ROCK-II(h)) of the same molecule?
**A.** The Inhibition ratio/% was 7%.

**Q.** What about the Inhibition ratio/% (TLK2(h)) of the same molecule?
**A.** Its Inhibition ratio/% is 25%.

**Q.** What about the Inhibition ratio/% (TRB2(h)) of the same molecule?
**A.** The Inhibition ratio/% was −5%.

**Q.** What does the source list for `C[C@H](NC(=O)c1c[nH]c2ccc(-c3ccc4nc(NC(=O)C5CC5)sc4c3)cc12)c1cccc(F)c1` [Compound 34, (S)-5-(2-(cyclopropanecarboxamido)benzo[d]thiazol-6-yl)-N-(1-(3-fluorophenyl)ethyl)-1H-indole-3-carboxamide]?
**A.** Inhibition ratio (CaMKK2(h)): 34%; Inhibition ratio (Axl(h)): 86%; Inhibition ratio (SGK3(h)): −1%; Inhibition ratio (CDK1/cyclinB(h)): 13%; Inhibition ratio (Met(Y1248H)(h)): 107%; Inhibition ratio (PKCμ(h)): 6%; Inhibition ratio (DDR2(h)): 76%; Inhibition ratio (MRCKα(h)): 12%; Inhibition ratio (Abl (H396P)(h)): 98%; Inhibition ratio (ALK1(h)): 50%; Inhibition ratio (SIK3(h)): 23%; Inhibition ratio (ZIPK(h)): −4%; Inhibition ratio (NLK(h)): 25%; Inhibition ratio (JNK1α1(h)): 15%; Inhibition ratio [1]: 16%; Inhibition ratio (CDKL1(h)): 50%; Inhibition ratio (TrkB(h)): 100%; Inhibition ratio (TrkA(h)): 102%; Inhibition ratio (EphB1(h)): 45%; Inhibition ratio (SGK(h)): 2%; Inhibition ratio (CHK2(R145W)(h)): 37%; Inhibition ratio (CDK7/cyclinH/MAT1(h)): 3%; Inhibition ratio (CK2(h)): −9%; Inhibition ratio (Plk4(h)): 14%; Inhibition ratio (TGFBR2(h)): 25%; Inhibition ratio (MELK(h)): 36%; Inhibition ratio (NDR2(h)): 23%; Inhibition ratio (NEK3(h)): 10%; Inhibition ratio (CaMKIIβ(h)): 21%; Inhibition ratio (Pim-3(h)): 3%; Inhibition ratio (EGFR(h)): 19%; Inhibition ratio (ROCK-II(h)): 11%; Inhibition ratio (TLK2(h)): 5%; Inhibition ratio (TRB2(h)): 65%
